# Structures can show the parent of a compound that is named as a salt.
# Target: purified human Factor XIa (Homo sapiens (Human), UniProt P03951)
# Experiment: Factor XIa enzyme inhibition assay (chromogenic substrate S-2366)
# Assay type: biochemical
# Settings: substrate S-2366, pH 7.4
# Method: The effectiveness of compounds of the present invention as inhibitors of the coagulation Factors XIa, VIIa, IXa, Xa, XIIa, plasma kallikrein or thrombin, can be determined using a relevant purified serine protease, respectively, and an appropriate synthetic substrate. The rate of hydrolysis of the chromogenic or fluorogenic substrate by the relevant serine protease was measured both in the absence and presence of compounds of the present invention. […] A decrease in the rate of absorbance or fluorescence change in the presence of inhibitor is indicative of enzyme inhibition. Such methods are known to one skilled in the art. The results of this assay are expressed as the inhibitory constant, Ki.
# Values of Ki were determined by allowing the protease to react with the substrate in the presence of the inhibitor. Reactions were allowed to go for periods of 20-180 minutes (depending on the protease) and the velocities (rate of absorbance or fluorescence change versus time) were measured. The following relationships were used to calculate Ki values: (vo−vs)/vs=I/(Ki(1+S/Km)) for a competitive inhibitor with one binding site; or vs/vo=A+((B−A)/1+((IC50/(I)n))); and Ki=IC50/(1+S/Km) for a competitive inhibitor where: […]
# Chain of purified human Factor XIa (P03951 388-625): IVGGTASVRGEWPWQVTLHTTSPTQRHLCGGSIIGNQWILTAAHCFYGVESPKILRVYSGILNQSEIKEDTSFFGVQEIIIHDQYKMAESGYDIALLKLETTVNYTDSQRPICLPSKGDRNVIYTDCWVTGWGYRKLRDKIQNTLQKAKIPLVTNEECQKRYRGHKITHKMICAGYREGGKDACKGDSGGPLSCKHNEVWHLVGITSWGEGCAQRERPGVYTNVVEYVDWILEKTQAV
# Chain of purified human Factor XIa (P03951 19-387 partner): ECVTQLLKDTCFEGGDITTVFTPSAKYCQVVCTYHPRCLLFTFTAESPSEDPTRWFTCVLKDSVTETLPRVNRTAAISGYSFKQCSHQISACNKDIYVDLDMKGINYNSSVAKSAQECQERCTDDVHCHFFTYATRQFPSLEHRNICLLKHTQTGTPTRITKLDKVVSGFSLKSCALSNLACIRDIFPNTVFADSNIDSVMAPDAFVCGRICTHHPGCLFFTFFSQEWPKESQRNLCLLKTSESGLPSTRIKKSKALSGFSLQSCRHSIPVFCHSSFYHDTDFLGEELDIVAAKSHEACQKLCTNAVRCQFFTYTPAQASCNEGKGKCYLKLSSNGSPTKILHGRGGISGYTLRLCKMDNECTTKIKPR
row,SMILES,Ki
1,"O=C(/C=C/c1cc(Cl)ccc1-n1cnnn1)N[C@H]1CC=CCCC(=O)Nc2ccccc2C2=NN=C1O2 (mixture of isomers) [Example 122, (E)-3-(5-Chloro-2-tetrazol-1-yl-phenyl)-N-((S)-9-oxo-19-oxa-8,17,18-triaza-tricyclo[14.2.1.0^2,7]nonadeca-1(18),2,4,6,12,16-hexaen-15-yl)-acrylamide, and (Z)-3-(5-Chloro-2-tetrazol-1-yl-phenyl)-N-((S)-9-oxo-19-oxa-8,17,18-triaza-tricyclo[14.2.1.0^2,7]nonadeca-1(18),2,4,6,12,16-hexaen-15-yl)-acrylamide]",25 nM
2,"COC(=O)Nc1ccc2c(c1)NC(=O)CCC(C)CC[C@H](NC(=O)/C=C/c1cc(Cl)ccc1-n1cnnn1)c1nc-2c[nH]1 (single isomer, unassigned) [Example 61]",< 5 nM
3,"COC(=O)Nc1ccc2c(c1)NC(=O)CC(O)C(O)C[C@H](NC(=O)/C=C/c1cc(Cl)ccc1-n1cnnn1)c1nc-2c[nH]1 (single isomer, unassigned) [Example 137]",192 nM
4,"COC(=O)Nc1ccc2c(c1)NS(=O)(=O)CC=CC[C@H](NC(=O)/C=C/c1cc(Cl)ccc1-n1cnnn1)c1nc-2c[nH]1 (stereo in doubt) [Example 19, {(E)-(S)-14-[(E)-3-(5-Chloro-2-tetrazol-1-yl-phenyl)-acryloylamino]-9,9-dioxo-9λ^6-thia-8,16,18-triaza-tricyclo[13.2.1.0^2,7]octadeca-1(17),2,4,6,11,15(18)-hexaen-5-yl}-carbamic acid methyl ester]",96 nM
5,NC[C@H]1CC[C@H](C(=O)N[C@H]2C/C=C/CCCc3ccccc3-c3c[nH]c2n3)CC1 [Example 3],6170 nM
6,"COC(=O)Nc1ccc2c(c1)CCC/C=C/C[C@H](NC(=O)/C=C/c1cc(Cl)ccc1-n1cnnn1)c1nc-2c[nH]1 [Example 4, {(E)-(S)-14-[(E)-3-(5-Chloro-2-tetrazol-1-yl-phenyl)-acryloylamino]-16,18-diaza-tricyclo[13.2.1.0^2,7]octadeca-1(17),2,4,6,11,15(18)-hexaen-5-yl}-carbamic acid methyl ester]",636 nM
7,"COC(=O)Nc1ccc2c(c1)CCCCCC[C@H](NC(=O)/C=C/c1cc(Cl)ccc1-n1cnnn1)c1nc-2c[nH]1 [Example 6, {(S)-14-[(E)-3-(5-Chloro-2-tetrazol-1-yl-phenyl)-acryloylamino]-16,18-diaza-tricyclo[13.2.1.0^2,7]octadeca-1(17),2,4,6,15(18)-pentaen-5-yl}-carbamic acid methyl ester]",34 nM
8,"COC(=O)Nc1ccc2c(c1)OCCCCC[C@H](NC(=O)/C=C/c1cc(Cl)ccc1-n1cnnn1)c1nc-2c(Cl)[nH]1 [Example 9, {(S)-17-Chloro-14-[(E)-3-(5-chloro-2-tetrazol-1-yl-phenyl)-acryloylamino]-8-oxa-16,18-diaza-tricyclo[13.2.1.0^2,7]octadeca-1(17),2,4,6,15(18)-pentaen-5-yl}-carbamic acid methyl ester]",249 nM
9,"COC(=O)Nc1ccc2c(c1)NCCCCC[C@H](NC(=O)/C=C/c1cc(Cl)ccc1-n1cnnn1)c1nc-2c[nH]1 [Example 11, {(S)-14-[(E)-3-(5-Chloro-2-tetrazol-1-yl-phenyl)-acryloylamino]-8,16,18-triaza-tricyclo[13.2.1.0^2,7]octadeca-1(17),2,4,6,15(18)-pentaen-5-yl}-carbamic acid methyl ester]",6 nM
10,"COC(=O)Nc1ccc2c(c1)NCC(F)(F)C(=O)NC[C@H](NC(=O)/C=C/c1cc(Cl)ccc1-n1cnnn1)c1nc-2c[nH]1 [Example 21, {(S)-14-[(E)-3-(5-Chloro-2-tetrazol-1-yl-phenyl)-acryloylamino]-10,10-difluoro-11-oxo-8,12,16,18-tetraaza-tricyclo[13.2.1.0^2,7]octadeca-1(17),2,4,6,15(18)-pentaen-5-yl}-carbamic acid methyl ester]",4520 nM
11,"COC(=O)Nc1ccc2c(c1)NC(=O)CC/C=C/CC(NC(=O)/C=C/c1cc(Cl)ccc1-n1cnnn1)c1cc(Cl)nnc1-2 (stereo not drawn) [Example 89, Methyl((E)-3-chloro-5-((E)-3-(5-chloro-2-(1H-tetrazol-1-yl)phenyl)acrylamido)-11-oxo-5,6,9,10,11,12-hexahydrobenzo[b]pyridazino[3,4-d][1]azacyclododecin-14-yl)carbamate]",1060 nM
12,"COC(=O)Nc1ccc2c(c1)NC(=O)CC/C=C/C[C@H](NC(=O)[C@H]1CC[C@H](CN)CC1)c1cc-2ccn1 [Example 90, {(E)-(S)-15-[(4-Aminomethyl-cyclohexanecarbonyl)-amino]-9-oxo-8,17-diaza-tricyclo[14.3.1.0^2,7]icosa-1(20),2(7),3,5,12,16,18-heptaen-5-yl}-carbamic acid methyl ester]",< 5 nM
13,"COC(=O)Nc1ccc2c(c1)NC(=O)CC/C=C/CC(NC(=O)/C=C/c1cc(Cl)ccc1-n1cnnn1)c1cccc-2c1 (stereo not drawn) [Example 93, {(E)-15-[(E)-3-(5-Chloro-2-tetrazol-1-yl-phenyl)-acryloylamino]-9-oxo-8-aza-tricyclo[14.3.1.0^2,7]icosa-1(20),2,4,6,12,16,18-heptaen-5-yl}-carbamic acid methyl ester]",< 5 nM
14,"O=C(/C=C/c1cc(Cl)ccc1-n1cnnn1)N[C@H]1C/C=C/COC(=O)Nc2ccccc2-c2nc1[nH]c2Cl [Example 121, (E)-N-((E)-(S)-18-Chloro-9-oxo-10-oxa-8,17,19-triaza-tricyclo[14.2.1.0^2,7]nonadeca-1(18),2,4,6,12,16(19)-hexaen-15-yl)-3-(5-chloro-2-tetrazol-1-yl-phenyl)-acrylamide]",< 5 nM
15,"COC(=O)Nc1ccc2c(c1)NC(=O)CC/C=C/C[C@H](NC(=O)c1ccc(C#N)cc1)c1nc-2c(Cl)[nH]1 [Example 136, [(E)-(S)-18-Chloro-15-(4-cyano-benzoylamino)-9-oxo-8,17,19-triaza-tricyclo[14.2.1.0^2,7]nonadeca-1(18),2,4,6,12,16(19)-hexaen-5-yl]-carbamic acid methyl ester, 1 TFA salt]",962 nM
16,"O=C(/C=C/c1cc(Cl)ccc1-n1cnnn1)N[C@H]1CCCCC(=O)Nc2cnccc2-c2ccnc1c2 [Example 138, (E)-3-(5-Chloro-2-tetrazol-1-yl-phenyl)-N-((S)-9-oxo-5,8,16-triaza-tricyclo[13.3.1.0^2,7]nonadeca-1(19),2,4,6,15,17-hexaen-14-yl)-acrylamide, 2 TFA salt]",20 nM
17,"COC(=O)Nc1ccc2c(c1)NC(=O)C/C=C/CC(NC(=O)/C=C/c1cc(Cl)ccc1-n1cnnn1)c1cc-2nc(C)n1 (stereo not drawn) [Example 167, {(E)-14-[(E)-3-(5-Chloro-2-tetrazol-1-yl-phenyl)-acryloylamino]-17-methyl-9-oxo-8,16,18-triaza-tricyclo[13.3.1.0^2,7]nonadeca-1(19),2,4,6,11,15,17-heptaen-5-yl}-carbamic acid methyl ester]",157 nM
18,COC(=O)Nc1ccc2c(c1)NC(=O)CCCC[C@H](NC(=O)c1ccc(C(=N)N)cc1)c1nc-2c[nH]1 [Example I-4],< 5 nM
19,COC(=O)Nc1ccc2c(c1)NC(=O)CCCC[C@H](NC(=O)/C=C/c1cc(Cl)ccc1-n1ccnn1)c1nc-2c[nH]1 [Example I-5],< 5 nM
20,COC(=O)Nc1ccc2c(c1)NC(=O)CCCC[C@H](NC(=O)c1cc(-c3cccc(Cl)c3)no1)c1nc-2c[nH]1 [Example I-9],1870 nM
21,COC(=O)Nc1ccc2c(c1)NC(=O)CCCC[C@H](NC(=O)c1cn(-c3cccc(Cl)c3)nn1)c1nc-2c[nH]1 [Example I-10],217 nM
22,COC(=O)Nc1ccc2c(c1)NC(=O)CCCC[C@H](NC(=O)c1ccc3c(c1)CCCN3)c1nc-2c[nH]1 [Example I-13],311 nM
23,COC(=O)Nc1ccc2c(c1)NC(=O)CCCC[C@H](NC(=O)c1ccc3ncccc3c1)c1nc-2c[nH]1 [Example I-14],2920 nM
24,COC(=O)Nc1ccc2c(c1)NC(=O)CCCC[C@H](NC(=O)c1cccc3ccccc13)c1nc-2c[nH]1 [Example I-17],351 nM
25,COC(=O)Nc1ccc2c(c1)NC(=O)CCCC[C@H](NC(=O)c1c(F)cc3c(ncn3C)c1F)c1nc-2c(F)[nH]1 [Example I-21],< 5 nM
26,COC(=O)Nc1ccc2c(c1)NC(=O)C(C)CCC[C@H](NC(=O)c1c(F)cc3c(ncn3C)c1F)c1nc-2c(Cl)[nH]1 (stereo partly drawn) [Example I-57],6.6 nM
27,COC(=O)Nc1ccc2c(c1)NC(=O)C(C)CCC[C@H](NC(=O)c1c(F)cc3c(ccn3C)c1F)c1nc-2c(Cl)[nH]1 (stereo partly drawn) [Example I-59],< 5 nM
28,COC(=O)Nc1ccc2c(c1)N[C@@H](C(F)(F)F)CCCC[C@H](NC(=O)/C=C/c1cc(Cl)ccc1-n1cnnn1)c1nc-2c(Cl)[nH]1 [Example I-60],616 nM
29,"CCOC(=O)[C@@H]1CCCC[C@H](NC(=O)/C=C/c2cc(Cl)ccc2-n2cnnn2)c2nc(c[nH]2)-c2ccc(NC(=O)OC)cc2N1 [Example I-67, (9S,14S)-14-[(E)-3-(5-Chloro-2-tetrazol-1-yl-phenyl)-acryloylamino]-5-methoxycarbonylamino-8,16,18-triaza-tricyclo[13.2.1.0^2,7]octadeca-1(17),2,4,6,15(18)-pentaene-9-carboxylic acid ethyl ester, 2 TFA salt]",203 nM
30,COC(=O)Nc1ccc2c(c1)N[C@@H](C(F)(F)F)CCCC[C@H](NC(=O)/C=C/c1cc(Cl)ccc1-n1cnnn1)c1nc-2c(C)[nH]1 [Example I-70],270 nM
